Laboratory results: PubChem BioAssay (NCI)
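Interpolation was linear, between the two tested concentrations surrounding the appropriate level; five concentrations were tested over 48 hours in 96-well plates. TGI denotes the concentration required for complete inhibition of growth.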

How the values were obtained:
Assay in all cases: NCI-60 cell line screen, 48 h
OVCAR-4 ovarian = system: OVCAR-4 ovarian
NCI-H460 lung = system: NCI-H460 lung
HS 578T breast = system: HS 578T breast
HOP-62 NSCLC = system: HOP-62 NSCLC
MDA-N = system: MDA-N
RPMI-8226 leukemia = system: RPMI-8226 leukemia
MCF7 breast = system: MCF7 breast
SN12C renal = system: SN12C renal
OVCAR-8 ovarian = system: OVCAR-8 ovarian
IGROV1 ovarian = system: IGROV1 ovarian
CAKI-1 renal = system: CAKI-1 renal
KM12 colon = system: KM12 colon
SK-OV-3 ovarian = system: SK-OV-3 ovarian
PC-3 prostate = system: PC-3 prostate
SNB-75 CNS = system: SNB-75 CNS
HCT-116 colon = system: HCT-116 colon
T-47D breast = system: T-47D breast
UACC-62 melanoma = system: UACC-62 melanoma
RXF 393 renal = system: RXF 393 renal
TK-10 renal = system: TK-10 renal
ACHN renal = system: ACHN renal
HCC-2998 colon = system: HCC-2998 colon
BT-549 breast = system: BT-549 breast
LOX IMVI melanoma = system: LOX IMVI melanoma
HCT-15 colon = system: HCT-15 colon
COLO 205 colon = system: COLO 205 colon
UO-31 renal = system: UO-31 renal
NCI-H522 lung = system: NCI-H522 lung
CCRF-CEM leukemia = system: CCRF-CEM leukemia
HT29 colon = system: HT29 colon
OVCAR-3 ovarian = system: OVCAR-3 ovarian
UACC-257 melanoma = system: UACC-257 melanoma
SK-MEL-5 melanoma = system: SK-MEL-5 melanoma
HL-60(TB) leukemia = system: HL-60(TB) leukemia
MDA-MB-231 breast = system: MDA-MB-231 breast
MALME-3M melanoma = system: MALME-3M melanoma
HOP-92 NSCLC = system: HOP-92 NSCLC
SW-620 colon = system: SW-620 colon
U251 CNS = system: U251 CNS
NCI-H23 lung = system: NCI-H23 lung
786-0 renal = system: 786-0 renal
OVCAR-5 ovarian = system: OVCAR-5 ovarian
SF-268 CNS = system: SF-268 CNS
SK-MEL-2 melanoma = system: SK-MEL-2 melanoma
NCI-H226 lung = system: NCI-H226 lung
EKVX NSCLC = system: EKVX NSCLC
MDA-MB-435 = system: MDA-MB-435
M14 melanoma = system: M14 melanoma
A549 NSCLC = system: A549 NSCLC
K-562 leukemia = system: K-562 leukemia
MOLT-4 leukemia = system: MOLT-4 leukemia
SF-295 CNS = system: SF-295 CNS
DU-145 prostate = system: DU-145 prostate
SNB-19 CNS = system: SNB-19 CNS
SR leukemia = system: SR leukemia
SF-539 CNS = system: SF-539 CNS
NCI/ADR-RES ovarian = system: NCI/ADR-RES ovarian

Cn1c2ccccc2c(=NNc2ccc(S(=O)(=O)N=C(N)N)cc2)c2ccccc21
TGI (OVCAR-4 ovarian): 16.8 µM | TGI (NCI-H460 lung): 14 µM | TGI (HS 578T breast): 49.7 µM | TGI (HOP-62 NSCLC): 28.2 µM | TGI (MDA-N): 25.1 µM | TGI (RPMI-8226 leukemia): 43.4 µM | TGI (MCF7 breast): 12.9 µM | TGI (SN12C renal): 21.9 µM | TGI (OVCAR-8 ovarian): 26.4 µM | TGI (IGROV1 ovarian): 28.5 µM | TGI (CAKI-1 renal): 38.8 µM | TGI (KM12 colon): 20.6 µM | TGI (SK-OV-3 ovarian): 21.3 µM | TGI (PC-3 prostate): 21.3 µM | TGI (SNB-75 CNS): 25.4 µM | TGI (HCT-116 colon): 17 µM | TGI (T-47D breast): 35.6 µM | TGI (UACC-62 melanoma): 32 µM | TGI (RXF 393 renal): 10.8 µM | TGI (TK-10 renal): 26.5 µM | TGI (ACHN renal): 20.1 µM | TGI (HCC-2998 colon): 19.8 µM | TGI (BT-549 breast): 29.1 µM | TGI (LOX IMVI melanoma): 16.9 µM | TGI (HCT-15 colon): 36.7 µM | TGI (COLO 205 colon): 18.7 µM | TGI (UO-31 renal): 22 µM | TGI (NCI-H522 lung): 11 µM | TGI (CCRF-CEM leukemia): 31.9 µM | TGI (HT29 colon): 14.5 µM | TGI (OVCAR-3 ovarian): 23 µM | TGI (UACC-257 melanoma): 34.9 µM | TGI (SK-MEL-5 melanoma): 20.1 µM | TGI (HL-60(TB) leukemia): 38.6 µM | TGI (MDA-MB-231 breast): 32.4 µM | TGI (MALME-3M melanoma): 20.7 µM | TGI (HOP-92 NSCLC): 36.4 µM | TGI (SW-620 colon): 21.1 µM | TGI (U251 CNS): 21.6 µM | TGI (NCI-H23 lung): 26.9 µM | TGI (786-0 renal): 19.2 µM | TGI (OVCAR-5 ovarian): 20.2 µM | TGI (SF-268 CNS): 22.1 µM | TGI (SK-MEL-2 melanoma): 28 µM | TGI (NCI-H226 lung): 19 µM | TGI (EKVX NSCLC): 25 µM | TGI (MDA-MB-435): 23.7 µM | TGI (M14 melanoma): 30.1 µM | TGI (A549 NSCLC): 26.7 µM | TGI (K-562 leukemia): 18 µM | TGI (MOLT-4 leukemia): 13.4 µM | TGI (SF-295 CNS): 31.1 µM | TGI (DU-145 prostate): 32.3 µM | TGI (SNB-19 CNS): 22.6 µM | TGI (SR leukemia): 40.5 µM | TGI (SF-539 CNS): 27.3 µM | TGI (NCI/ADR-RES ovarian): 71.1 µM
